Literature values as cited in patent publication US4897502A, “Process for making solid polyhalotriaryl phosphate esters” (priority 1987, dated 1990).
Read-outs that look alike come from different tables or passages of the source.

Tests used:
[1] = 0° C.

Row | Compound | Hansen Dispersion Component (Table I) | Hildebrand Solubility Parameter (Table I) | further results
1 | CCCCCO [Example 1-pentanol, 1-pentanol] | 14.4 SI |  | 
2 | CO [methanol] |  |  | Hansen Dispersion Component (comparison liquids): 7.4
3 | CCCCCCCCO [Example 1-octanol, 1-octanol] | 15.2 SI | 21.1 SI | 
4 | CCCCC(CC)CO (centres unmarked) [2-ethylhexanol] |  | 20.8 SI | 
5 | CCCC(C)O (centres unmarked) [Example 2-pentanol, 2-pentanol] | 15.0 SI | 22.2 SI | 
6 | CCCCCCCO [Example 1-heptanol, 1-heptanol] | 15.1 SI |  | 
7 | CC(C)O [Example 2-propanol, 2-propanol] |  |  | Hansen Dispersion Component (comparison liquids): 7.6
8 | [Cl-].[Cl-].[Mg+2] [magnesium chloride] |  |  | magnesium chloride dissolving in 100 g ethanol ([1]; 100 g ethanol): 3.61 g; magnesium chloride dissolving in 100 g methanol ([1]; 100 g methanol): 15.5 g
9 | CCCCC(O)CC (centres unmarked) [Example 3-heptanol, 3-heptanol] | 14.6 SI | 20.2 SI | 
10 | amyl alcohol [amyl alcohol (pract.)] | 14.5 SI |  | 
11 | CCCCCC(C)O (centres unmarked) [Example 2-heptanol, 2-heptanol] | 14.6 SI |  | 
12 | CCCCCCCCCCO [Example 1-decanol, 1-decanol] | 15.4 SI | 20.5 SI | 
13 | CCC(C)O (centres unmarked) [Example 2-butanol, 2-butanol] | 14.5 SI | 22.7 SI | 
14 | CCCCCCO [Example 1-hexanol, 1-hexanol] | 15.0 SI |  | 
